According to the supplement of paper PMC5908809:

Assays:
SNK-6 (IL-2 2.5 ng/mL) [1] = experiment: percent inhibition of viability; higher = more inhibition; details: 72 h
NKL (IL-2 2.5 ng/mL) [2] = experiment: as above; details: 72 h
YT (IL-2 2.5 ng/mL) [3] = experiment: as above; details: 72 h
[4] = system: normal primary NK cells, pool 1 (3 donors), resting (IL-2 0 ng/mL); experiment: as above; details: 72 h
NK-YS (IL-2 2.5 ng/mL) [5] = experiment: as above; details: 72 h
KHYG-1 (IL-2 2.5 ng/mL) [6] = experiment: as above; details: 72 h
NK-92 (IL-2 2.5 ng/mL) [7] = experiment: as above; details: 72 h
KAI3 (IL-2 2.5 ng/mL) [8] = experiment: as above; details: 72 h
[9] = system: normal primary NK cells, pool 2 (3 donors) (IL-2 2.5 ng/mL); experiment: as above; details: 72 h
[10] = system: normal primary NK cells, pool 3 (3 donors) (IL-2 2.5 ng/mL); experiment: as above; details: 72 h
DERL-7 (IL-2 2.5 ng/mL) [11] = experiment: as above; details: 72 h
[12] = system: normal primary NK cells, pool 1 (3 donors) (IL-2 2.5 ng/mL); experiment: as above; details: 72 h
IMC-1 (IL-2 20 ng/mL) [13] = experiment: as above; details: 72 h
[14] = system: normal NK cells expanded with K562-aAPC; experiment: drug sensitivity score (DSS) (DSS units); higher = more sensitive; extreme values may be limits of the assay; details: 72 h; IL-2 2.5 ng/mL
Description: (§1)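 Drug sensitivity and resistance testing on K562-aAPC-expanded normal NK cells: 5 concentrations (10-fold steps over a 10,000-fold range), 72 h at 37 °C, viability by CellTiter-Glo normalised to DMSO and benzethonium chloride controls; DSS from the fitted curve.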

[15] = system: normal NK cells expanded with K562-aAPC; experiment: percent inhibition of viability; higher = more inhibition; details: 72 h, IL-2 2.5 ng/mL
Description: as §1

SNK-6 (IL-2 2.5 ng/mL) [16] = experiment: drug sensitivity score (DSS) (DSS units); higher = more sensitive; extreme values may be limits of the assay; details: 72 h
NKL (IL-2 2.5 ng/mL) [17] = experiment: as above; details: 72 h
YT (IL-2 2.5 ng/mL) [18] = experiment: as above; details: 72 h
[19] = system: normal primary NK cells, pool 1 (3 donors), resting (IL-2 0 ng/mL); experiment: as above; details: 72 h
NK-YS (IL-2 2.5 ng/mL) [20] = experiment: as above; details: 72 h
KHYG-1 (IL-2 2.5 ng/mL) [21] = experiment: as above; details: 72 h
NK-92 (IL-2 2.5 ng/mL) [22] = experiment: as above; details: 72 h
KAI3 (IL-2 2.5 ng/mL) [23] = experiment: as above; details: 72 h
[24] = system: normal primary NK cells, pool 2 (3 donors) (IL-2 2.5 ng/mL); experiment: as above; details: 72 h
[25] = system: normal primary NK cells, pool 3 (3 donors) (IL-2 2.5 ng/mL); experiment: as above; details: 72 h
DERL-7 (IL-2 2.5 ng/mL) [26] = experiment: as above; details: 72 h
[27] = system: normal primary NK cells, pool 1 (3 donors) (IL-2 2.5 ng/mL); experiment: as above; details: 72 h
IMC-1 (IL-2 20 ng/mL) [28] = experiment: as above; details: 72 h

S=c1[nH]cnc2nc[nH]c12 [Mercaptopurine] (max concentration tested 10000 nM)
percent inhibition of viability [%]
Details	1 nM	10 nM	100 nM	1000 nM	10000 nM
DERL-7 (IL-2 2.5 ng/mL) [11]	-4.35	-1.44	0.98	9.85	47
IMC-1 (IL-2 20 ng/mL) [13]	-3.21	-3.47	2.38	21.7	91.4
KAI3 (IL-2 2.5 ng/mL) [8]	-5.39	-4.2	-7.01	6.69	53.7
KHYG-1 (IL-2 2.5 ng/mL) [6]	-2.69	-0.22	5.34	30	99.3
NK-92 (IL-2 2.5 ng/mL) [7]	-10.3	-10.7	12.1	38.5	53.5
NK-YS (IL-2 2.5 ng/mL) [5]	-2.27	-1.87	9.74	52.6	90.4
NKL (IL-2 2.5 ng/mL) [2]	-15.5	0	-11.9	-4.76	6.22
SNK-6 (IL-2 2.5 ng/mL) [1]	11.4	16.1	38.4	75.4	94.4
YT (IL-2 2.5 ng/mL) [3]	-0.59	-2.35	3.64	24.6	81.8
[4]	-2.87	-18.3	-8.34	-34.9	-22.3
[9]	-14.1	-7.32	-6.91	-13.4	3.06
[10]	-16.8	-9.02	-3.33	-7.89	8.16
[12]	-1.1	-6.11	-2.9	-10.7	0.61
[15]	-5.16	4.06	-1.48	3.65	11.2

Details	drug sensitivity score
DERL-7 (IL-2 2.5 ng/mL) [26]	4.05
IMC-1 (IL-2 20 ng/mL) [28]	8.45
KAI3 (IL-2 2.5 ng/mL) [23]	3.99
KHYG-1 (IL-2 2.5 ng/mL) [21]	9.71
NK-92 (IL-2 2.5 ng/mL) [22]	8.34
NK-YS (IL-2 2.5 ng/mL) [20]	11.6
NKL (IL-2 2.5 ng/mL) [17]	0
SNK-6 (IL-2 2.5 ng/mL) [16]	19.7
YT (IL-2 2.5 ng/mL) [18]	8.11
[14]	0.11
[19]	0
[24]	0
[25]	0
[27]	0
